Laboratory results from patent US9120798B2, “Amino-heteroaryl 7-hydroxy-spiropiperidine indolinyl antagonists of P2Y1 receptor” (priority 2012, dated 2015).
Where two headings read alike, the source gives them in different places.

How the values were obtained:
[1] = target: cloned human P2Y1 receptors (Homo sapiens (Human), UniProt P47900); assay: Binding Assay A: membrane binding assay, [33P] 2MeS-ADP, WGA FlashPlates
Excerpt: A membrane binding assay was used to identify inhibitors of [^33P] […] The cDNA clone for human P2Y1 was obtained from Incyte Pharmaceuticals and its sequence confirmed by established techniques (for a compendium of techniques used see Ausubel, F. et al. Current Protocols in Molecular Biology, John Wiley and Sons, NY, N.Y. (1995)). The essential coding sequences were subcloned into pCDNA 3.1 (Invitrogen) to produce a P2Y1 expression construct. This construct was then transfected into the human embryonic kidney cell line HEK-293 and stable transfectants selected in GENETICIN® (G418 sulfate; Life Technologies). […] Membranes were prepared by growing HEK293 #49 in 150 mm dishes in DMEM/10% FBS in the presence of 1 mg/ml G418 until cells were 80-90% confluent. Plates were then washed with cold (4° C.) D-PBS twice and cells harvested by scraping into 10 mL D-PBS. Cells were pelleted by centrifugation (1,000 g, 10 min, 4° C.) and the resulting pellet resuspended in Lysis Buffer (10 mM Tris (7.4), 5 mM MgCl2 containing Complete protease inhibitor cocktail (Roche Cat #1873580) as recommended by the manufacturer). The suspension was then homogenized in a Dounce homogenizer (10-15 strokes; B pestle, on ice) and the homogenate spun at 1,000 g, 4° C., 5 min to pellet large debris. The supernatant was centrifuged at 150,000 g, 4° C., for 1 hour and the resulting membrane pellet resuspended in 0.5-1 mL of Buffer B (15 mM HEPES (7.4), 145 mM NaCl, 0.1 mM MgCl2, 5 mM EDTA, 5 mM KCl) and stored at −70° C. until used.
Binding reactions were performed in WGA FlashPlates (PerkinElmer Life Sciences, Cat # SMP105A) in a volume of 200 μL containing ˜45 fmol of P2Y1 receptor (5 μg of total protein), 0.5 nM [^33P] […] Reactions were allowed to proceed to completion at room temperature for 1 hour and then the aqueous solution aspirated. Plates were sealed and the residual [^33P] bound to the plate determined by scintillation counting.

[2] = test system: human platelet rich plasma (PRP); assay: ADP induced platelet aggregation assay; type: cell-based; details: 5 min, read-out: PA IC50 (μM) @ 10 μM ADP
Experimental: ADP Induced Platelet Aggregation Assay
The ability of P2Y1 antagonists covered in the present invention to inhibit platelet aggregation induced by 10 μM ADP was tested using human platelet rich plasma (PRP) as described in Platelet Protocols: Research and Clinical Laboratory Procedures (White, M. M. et al., Academic Press (1999)). Human blood was collected in 30 μM (final concentration in blood) argatroban (GSK) as the anticoagulant at a ratio of 1 ml per 9 ml of blood. The PRP was isolated by centrifugation at 170 g for 12 minutes. The platelet poor plasma (PPP) was used as the blank for optical aggregometry. Compounds of the present invention in DMSO solution was preincubated with 250 μl PRP at 37° C. for 1 minute with stirring speed of 1000 rpm. Aggregation was initiated by addition of 2.5 μl of 1 mM ADP (Chrono-log, Havertown, Pa.) for a final ADP concentration of 10 uM. Platelet aggregation was monitored using Optical Aggregometer (Chrono-log, Havertown, Pa.) and the area under the curve (AUC) at 5 minute was measured. IC50 was calculated using vehicle control as 0% inhibition.
The platelet aggregation assay measures the in vitro antiplatelet activity of a compound in platelet rich plasma. The assay is sensitive to plasma protein binding, and is believed to be a better predictor of actual in vivo activity.

[3] = read-out: P2Y1 Ki (nM), *Using binding assay A
[4] = starred values, FlashPlate, 0.5 nM [33P] 2MeS-ADP, Cheng-Prusoff, read-out: P2Y1 Ki (nM), *Using binding assay A

Chain of cloned human P2Y1 receptors (P47900 whole entry): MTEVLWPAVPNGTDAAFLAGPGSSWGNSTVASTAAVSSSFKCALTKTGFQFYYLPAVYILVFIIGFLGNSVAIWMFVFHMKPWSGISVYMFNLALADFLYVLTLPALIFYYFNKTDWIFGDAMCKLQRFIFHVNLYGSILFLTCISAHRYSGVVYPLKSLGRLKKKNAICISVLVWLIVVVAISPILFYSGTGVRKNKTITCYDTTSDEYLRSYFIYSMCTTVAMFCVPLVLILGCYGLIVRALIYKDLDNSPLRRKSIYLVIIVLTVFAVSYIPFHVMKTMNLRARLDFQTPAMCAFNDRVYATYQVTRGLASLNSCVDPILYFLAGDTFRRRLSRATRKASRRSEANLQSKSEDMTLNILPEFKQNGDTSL

`CC(C)(C)CN1CCC2(CC1)CCN(c1ccccc1Nc1nc3ccc(C(C)(C)C)cc3[nH]1)c1ccccc12` [Comparator 1, reference compound] gave a Ki [1, 3] of 259 nM and an IC50 [2] greater than 40 µM.
With `CCOC(=O)c1sc(Nc2ccccc2N2CC3(CCN(CC(C)(C)C)CC3)c3ccccc32)nc1C(F)(F)F` [Comparator 2, reference compound] the Ki [1, 3] was 6.3 nM and the IC50 [2] was greater than 40 µM.
`COC(=O)c1sc(Nc2ccccc2N2CC3(CCN(CC(C)(C)C)CC3)c3ccccc32)nc1C` [Comparator 3, reference compound] was tested, and the Ki [1, 3] was 18 nM and the IC50 [2] was greater than 40 µM.
In the case of `CC(C)(C)CN1CCC2(CC1)CN(c1ccccc1Nc1nc(C(F)(F)F)c(-c3ccccc3)s1)c1ccccc12` [Comparator 4, reference compound], the Ki [1, 3] is reported as 7.9 nM and the IC50 [2] is reported as greater than 40 µM.
In the case of `CC(C)(C)CN1CCC2(CC1)CN(c1ccccc1Nc1nnc(-c3ccc(C(F)(F)F)cc3)s1)c1c(O)ccc(Cl)c12` [Example 7, 4-Chloro-1′-neopentyl-1-(2-(5-(4-(trifluoromethyl)phenyl)-1,3,4-thiadiazol-2-ylamino)phenyl)spiro[indoline-3,4′-piperidin]-7-ol], the Ki [1] is reported as 3.3 nM and the IC50 [2] is reported as 2.7 µM.
For `CC(C)(C)CN1CCC2(CC1)CN(c1ccccc1Nc1nnc(-c3cccnc3)s1)c1c(O)ccc(Cl)c12` [Example 9, 4-Chloro-1′-neopentyl-1-(2-((5-(pyridin-3-yl)-1,3,4-thiadiazol-2-yl)amino)phenyl)spiro[indoline-3,4′-piperidin]-7-ol], the Ki [1] was 24.3 nM and the IC50 [2] was 8.5 µM.
Compound `CC(C)(C)CN1CCC2(CC1)CN(c1ccccc1Nc1nnc(-c3cnccn3)s1)c1c(O)ccc(Cl)c12` [Example 12, 4-Chloro-1′-neopentyl-1-(2-((5-(pyrazin-2-yl)-1,3,4-thiadiazol-2-yl)amino)phenyl)spiro[indoline-3,4′-piperidin]-7-ol] has a Ki [1, 4] of 6.5 nM and an IC50 [2] of 0.9 µM.
`Cc1cc(-c2nnc(Nc3ccccc3N3CC4(CCN(CC(C)(C)C)CC4)c4c(Cl)ccc(O)c43)s2)n(C)n1` [Example 13, 4-Chloro-1-(2-((5-(1,3-dimethyl-1H-pyrazol-5-yl)-1,3,4-thiadiazol-2-yl)amino)phenyl)-1′-neopentylspiro[indoline-3,4′-piperidin]-7-ol] showed a Ki [1, 4] of 6.6 nM and an IC50 [2] of 0.9 µM.
For `CC(C)(C)CN1CCC2(CC1)CN(c1ccccc1Nc1nnc(C3CCOCC3)s1)c1c(O)ccc(Cl)c12` [Example 14, 4-Chloro-1′-neopentyl-1-(2-((5-(tetrahydro-2H-pyran-4-yl)-1,3,4-thiadiazol-2-yl)amino)phenyl)spiro[indoline-3,4′-piperidin]-7-ol], the Ki [1, 3] was 155 nM and the IC50 [2] was 23 µM.
`CC(C)(C)CN1CCC2(CC1)CN(c1ccccc1Nc1nnc(-c3ccc(C(F)(F)F)nc3)s1)c1c(O)ccc(Cl)c12` [Example 15, 4-Chloro-1′-neopentyl-1-(2-((5-(6-(trifluoromethyl)pyridin-3-yl)-1,3,4-thiadiazol-2-yl)amino)phenyl)spiro[indoline-3,4′-piperidin]-7-ol] gave a Ki [1] of 5.7 nM and an IC50 [2] of 1.6 µM.
